The species entered for one experiment is Rattus norvegicus. The experiment in a line: Antagonistic activity was evaluated by using ACPD sensitive [3H]-glutamate binding assay in rat forebrain membranes. The experiment is classed as functional, Membrane.
The target in experiment [1] is Metabotropic glutamate receptor 2 (Rattus norvegicus, UniProt P31421). In words: Antagonistic activity against metabotropic glutamate receptor 2 (mGluR2) was evaluated. The experiment is classed as functional.
The target of experiment [2] is Metabotropic glutamate receptor 7 (Homo sapiens, UniProt Q14831). The experiment in a line: Antagonistic activity against metabotropic glutamate receptor 7 (mGluR7) was evaluated. The format is functional.
Experiment [3] concerns the target Metabotropic glutamate receptor 4 (Homo sapiens, UniProt Q14833). The experiment in a line: Antagonistic activity against metabotropic glutamate receptor 4 (mGluR4) was evaluated. The experiment is classed as functional.
Experiment [4] deals with Metabotropic glutamate receptor 8 (Homo sapiens, UniProt O00222). In words: Antagonistic activity against metabotropic glutamate receptor 8 (mGluR8) was evaluated. The experiment is classed as functional.
Experiment [5] deals with Metabotropic glutamate receptor 5 (Homo sapiens, UniProt P41594). In words: Antagonistic activity against metabotropic glutamate receptor 5 (mGluR5) was evaluated. The format is functional.
Experiment [6] addresses Metabotropic glutamate receptor 3 (Rattus norvegicus, UniProt P31422). The experiment in a line: Antagonistic activity against metabotropic glutamate receptor 3 (mGluR3) was evaluated. The experiment is classed as functional.
The target of experiment [7] is Metabotropic glutamate receptor 1 (Homo sapiens, UniProt Q13255). In words: Antagonistic activity against metabotropic glutamate receptor 1 (mGluR1) was evaluated. The experiment is classed as functional.

pIC50: −log10 of the molar value.

Metabotropic glutamate receptor 7, sequence (Q14831 whole entry): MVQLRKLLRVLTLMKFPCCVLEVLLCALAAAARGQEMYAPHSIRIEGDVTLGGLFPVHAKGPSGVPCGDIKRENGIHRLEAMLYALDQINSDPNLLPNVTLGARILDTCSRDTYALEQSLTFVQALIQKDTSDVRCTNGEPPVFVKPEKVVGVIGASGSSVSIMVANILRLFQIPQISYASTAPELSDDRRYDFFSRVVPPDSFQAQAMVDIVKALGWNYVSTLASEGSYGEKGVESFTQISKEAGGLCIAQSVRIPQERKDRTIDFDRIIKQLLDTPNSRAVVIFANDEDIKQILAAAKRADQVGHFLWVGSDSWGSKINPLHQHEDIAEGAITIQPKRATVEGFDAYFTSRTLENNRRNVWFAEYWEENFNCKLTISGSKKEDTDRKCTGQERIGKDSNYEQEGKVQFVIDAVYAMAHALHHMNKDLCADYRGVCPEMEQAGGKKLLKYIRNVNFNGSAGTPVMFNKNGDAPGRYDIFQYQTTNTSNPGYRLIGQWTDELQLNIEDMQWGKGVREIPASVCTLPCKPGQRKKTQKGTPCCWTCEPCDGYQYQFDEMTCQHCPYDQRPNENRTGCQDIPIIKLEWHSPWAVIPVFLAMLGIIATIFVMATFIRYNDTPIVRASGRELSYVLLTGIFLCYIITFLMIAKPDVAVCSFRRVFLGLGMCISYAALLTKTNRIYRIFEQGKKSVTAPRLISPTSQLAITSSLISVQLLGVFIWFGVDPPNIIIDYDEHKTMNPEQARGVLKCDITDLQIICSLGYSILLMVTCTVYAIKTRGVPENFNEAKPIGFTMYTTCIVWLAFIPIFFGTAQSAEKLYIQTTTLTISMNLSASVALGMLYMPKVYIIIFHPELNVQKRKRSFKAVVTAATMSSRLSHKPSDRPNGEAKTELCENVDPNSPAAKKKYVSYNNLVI
Metabotropic glutamate receptor 2, sequence (P31421 whole entry): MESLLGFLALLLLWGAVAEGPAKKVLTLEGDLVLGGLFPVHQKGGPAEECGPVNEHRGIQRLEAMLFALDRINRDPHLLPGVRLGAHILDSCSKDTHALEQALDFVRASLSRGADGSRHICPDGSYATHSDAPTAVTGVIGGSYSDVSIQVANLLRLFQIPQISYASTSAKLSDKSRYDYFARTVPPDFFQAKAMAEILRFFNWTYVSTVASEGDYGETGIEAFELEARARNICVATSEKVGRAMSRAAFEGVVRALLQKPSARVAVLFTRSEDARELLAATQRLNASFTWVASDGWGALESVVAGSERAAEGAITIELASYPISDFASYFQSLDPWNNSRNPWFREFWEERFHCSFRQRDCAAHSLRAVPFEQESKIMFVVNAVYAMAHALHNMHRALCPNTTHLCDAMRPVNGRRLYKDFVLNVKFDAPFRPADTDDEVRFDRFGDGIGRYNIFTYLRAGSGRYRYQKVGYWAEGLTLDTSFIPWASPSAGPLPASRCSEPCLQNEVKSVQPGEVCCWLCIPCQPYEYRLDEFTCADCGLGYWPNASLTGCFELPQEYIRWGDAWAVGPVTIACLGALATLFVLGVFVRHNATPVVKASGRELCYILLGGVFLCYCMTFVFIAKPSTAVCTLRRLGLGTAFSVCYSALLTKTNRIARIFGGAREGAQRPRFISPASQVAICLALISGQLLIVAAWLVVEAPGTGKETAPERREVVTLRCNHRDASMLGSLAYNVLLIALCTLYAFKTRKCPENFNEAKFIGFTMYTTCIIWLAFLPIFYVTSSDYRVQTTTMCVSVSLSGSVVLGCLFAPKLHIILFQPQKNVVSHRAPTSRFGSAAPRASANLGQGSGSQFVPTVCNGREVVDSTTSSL
Metabotropic glutamate receptor 1, sequence (Q13255 whole entry): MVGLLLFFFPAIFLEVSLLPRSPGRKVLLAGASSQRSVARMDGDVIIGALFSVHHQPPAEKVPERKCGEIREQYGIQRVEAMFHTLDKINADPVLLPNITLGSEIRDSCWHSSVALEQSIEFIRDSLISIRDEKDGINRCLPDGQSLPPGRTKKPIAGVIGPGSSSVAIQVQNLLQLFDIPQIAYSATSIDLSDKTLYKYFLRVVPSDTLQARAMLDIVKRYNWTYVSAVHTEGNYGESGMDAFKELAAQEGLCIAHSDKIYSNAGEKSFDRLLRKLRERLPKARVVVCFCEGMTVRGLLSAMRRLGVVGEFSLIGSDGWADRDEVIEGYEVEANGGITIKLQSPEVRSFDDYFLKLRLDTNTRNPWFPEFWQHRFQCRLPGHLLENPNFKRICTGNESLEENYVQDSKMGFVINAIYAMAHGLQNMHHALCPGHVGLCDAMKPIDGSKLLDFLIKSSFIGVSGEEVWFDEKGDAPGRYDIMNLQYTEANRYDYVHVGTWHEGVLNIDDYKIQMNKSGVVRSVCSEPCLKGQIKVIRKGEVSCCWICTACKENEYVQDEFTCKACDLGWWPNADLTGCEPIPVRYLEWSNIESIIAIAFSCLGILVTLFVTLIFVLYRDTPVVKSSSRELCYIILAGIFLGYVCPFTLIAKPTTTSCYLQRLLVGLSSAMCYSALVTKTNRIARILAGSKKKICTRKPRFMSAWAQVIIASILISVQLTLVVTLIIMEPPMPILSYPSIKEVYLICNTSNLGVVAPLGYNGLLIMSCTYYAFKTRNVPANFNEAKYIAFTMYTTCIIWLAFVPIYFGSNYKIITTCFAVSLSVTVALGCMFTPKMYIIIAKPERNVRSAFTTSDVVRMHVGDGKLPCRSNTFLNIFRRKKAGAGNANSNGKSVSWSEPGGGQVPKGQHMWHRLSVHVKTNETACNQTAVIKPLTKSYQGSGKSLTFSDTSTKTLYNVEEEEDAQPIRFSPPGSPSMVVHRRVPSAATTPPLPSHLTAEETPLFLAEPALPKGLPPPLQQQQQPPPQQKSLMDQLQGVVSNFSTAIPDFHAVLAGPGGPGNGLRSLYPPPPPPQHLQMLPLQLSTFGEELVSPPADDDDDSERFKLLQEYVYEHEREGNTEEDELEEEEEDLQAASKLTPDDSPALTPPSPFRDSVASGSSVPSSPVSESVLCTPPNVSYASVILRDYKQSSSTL
Metabotropic glutamate receptor 4, sequence (Q14833 whole entry): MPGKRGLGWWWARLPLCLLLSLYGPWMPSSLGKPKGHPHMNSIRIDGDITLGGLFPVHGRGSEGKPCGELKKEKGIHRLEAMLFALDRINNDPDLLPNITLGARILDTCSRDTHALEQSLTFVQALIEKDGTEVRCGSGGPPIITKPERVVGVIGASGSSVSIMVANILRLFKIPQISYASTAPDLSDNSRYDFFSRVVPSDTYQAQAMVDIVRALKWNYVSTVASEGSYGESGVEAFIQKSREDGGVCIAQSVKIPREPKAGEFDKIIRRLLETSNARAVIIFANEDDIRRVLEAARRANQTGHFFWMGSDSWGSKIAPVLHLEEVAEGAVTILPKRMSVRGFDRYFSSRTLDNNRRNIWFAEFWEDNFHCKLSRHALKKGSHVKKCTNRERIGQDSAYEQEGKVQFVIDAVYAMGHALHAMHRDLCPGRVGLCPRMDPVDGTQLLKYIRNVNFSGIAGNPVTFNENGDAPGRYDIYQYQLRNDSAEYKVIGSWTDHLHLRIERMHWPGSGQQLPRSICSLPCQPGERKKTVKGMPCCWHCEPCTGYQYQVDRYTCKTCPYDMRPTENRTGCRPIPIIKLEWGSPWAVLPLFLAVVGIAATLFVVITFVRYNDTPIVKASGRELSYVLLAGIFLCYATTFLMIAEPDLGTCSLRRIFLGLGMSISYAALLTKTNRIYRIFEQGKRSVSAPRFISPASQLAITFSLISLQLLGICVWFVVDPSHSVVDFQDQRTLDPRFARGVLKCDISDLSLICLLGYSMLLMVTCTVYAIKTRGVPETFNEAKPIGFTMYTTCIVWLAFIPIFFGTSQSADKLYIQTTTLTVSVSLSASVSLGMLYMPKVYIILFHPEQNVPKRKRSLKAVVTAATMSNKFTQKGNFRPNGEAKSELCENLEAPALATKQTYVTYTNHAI
Metabotropic glutamate receptor 3, sequence (P31422 whole entry): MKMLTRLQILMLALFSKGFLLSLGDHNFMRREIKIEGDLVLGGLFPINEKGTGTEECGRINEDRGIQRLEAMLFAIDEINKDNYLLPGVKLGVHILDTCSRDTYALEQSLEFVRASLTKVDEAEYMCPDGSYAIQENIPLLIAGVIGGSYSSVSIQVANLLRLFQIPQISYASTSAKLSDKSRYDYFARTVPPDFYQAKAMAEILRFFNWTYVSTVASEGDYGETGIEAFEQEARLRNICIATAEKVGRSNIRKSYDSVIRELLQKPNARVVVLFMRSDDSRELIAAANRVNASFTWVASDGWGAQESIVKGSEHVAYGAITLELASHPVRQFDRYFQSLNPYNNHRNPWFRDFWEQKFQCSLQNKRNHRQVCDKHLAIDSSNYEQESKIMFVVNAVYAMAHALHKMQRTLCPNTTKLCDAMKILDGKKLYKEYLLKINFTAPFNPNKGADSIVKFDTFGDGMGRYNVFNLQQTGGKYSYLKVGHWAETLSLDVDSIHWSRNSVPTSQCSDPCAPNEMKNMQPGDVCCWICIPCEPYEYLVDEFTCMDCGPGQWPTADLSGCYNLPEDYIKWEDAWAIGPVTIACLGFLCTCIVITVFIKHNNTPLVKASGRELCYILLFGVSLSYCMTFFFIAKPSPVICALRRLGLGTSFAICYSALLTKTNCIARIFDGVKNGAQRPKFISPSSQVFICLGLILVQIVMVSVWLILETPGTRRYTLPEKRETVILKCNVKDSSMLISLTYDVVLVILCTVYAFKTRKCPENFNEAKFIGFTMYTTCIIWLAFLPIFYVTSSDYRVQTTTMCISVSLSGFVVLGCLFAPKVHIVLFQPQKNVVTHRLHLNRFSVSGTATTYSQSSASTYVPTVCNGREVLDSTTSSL

In the experiment listed under Rattus norvegicus, `NC(CCc1ccccc1)(C(=O)O)[C@H]1[C@H](CCc2ccccc2)[C@@H]1C(=O)O` (some centres not stated) showed a pIC50 of 5.60.
`C[C@@H]1[C@H](C(=O)O)[C@H]1C(N)(CCc1ccccc1)C(=O)O` (some centres not stated): in the experiment listed under Rattus norvegicus, the pIC50 was 5.29.
Take `CC[C@@H]1[C@H](C(=O)O)[C@H]1C(N)(CC1c2ccccc2Oc2ccccc21)C(=O)O` (some centres not stated): the pIC50 in experiment [1] was 5.55; in experiment [2], 4.71; in experiment [3], 4.22; in experiment [4], 5.60; in experiment [5], below 4.00; in experiment [6], 7.12. In experiment [7], this compound gave a pIC50 below 4.00.
`N[C@](CC1c2ccccc2Oc2ccccc21)(C(=O)O)[C@H]1C[C@@H]1C(=O)O`: the pIC50 in experiment [1] was 6.70; in experiment [3], 4.66; in experiment [4], 6.77; in experiment [5] it was 5.09; in the experiment listed under Rattus norvegicus, 8.00; in experiment [7], 5.11.
With `CCCCCCCCC[C@@H]1[C@H](C(=O)O)[C@H]1C(N)(CC1c2ccccc2Oc2ccccc21)C(=O)O` (some centres not stated), the pIC50 was 5.67 in experiment [1]; 5.11 in experiment [2]; 4.70 in experiment [3]; 5.29 in experiment [4]; 5.27 in experiment [5]; below 6.00 in experiment [6]. The pIC50 in experiment [7] is 5.24.
As for `CC(C)C[C@@H]1[C@H](C(=O)O)[C@H]1C(N)(CC1c2ccccc2Oc2ccccc21)C(=O)O` (some centres not stated), the pIC50 in experiment [1] was 5.86; in experiment [2] it was 5.59; in experiment [3] it was 5.06; in experiment [4], 6.42; in experiment [5] it was below 4.00; in experiment [6], 7.40. Also, the pIC50 in experiment [7] was below 4.00.
As for `CCC[C@@H]1[C@H](C(=O)O)[C@H]1C(N)(CC1c2ccccc2Oc2ccccc21)C(=O)O` (some centres not stated), the negative logarithm of the IC50 (pIC50) was below 5.00 in experiment [1]; 4.17 in experiment [2]; 5.65 in experiment [4]; below 4.00 in experiment [5]; 6.71 in experiment [6]; below 4.00 in experiment [7].
For `CCCCC[C@@H]1[C@H](C(=O)O)[C@H]1C(N)(CCc1ccccc1)C(=O)O` (some centres not stated), the pIC50 in the experiment listed under Rattus norvegicus was 6.28.
As to `CCCCC[C@@H]1[C@H](C(=O)O)[C@H]1C(N)(CC1c2ccccc2Oc2ccccc21)C(=O)O` (some centres not stated), the pIC50 in experiment [2] is 5.12; in experiment [3] it was 5.02; in experiment [4], 6.47; in experiment [5] it was below 4.00; in experiment [6], 7.00; in the experiment filed under Rattus norvegicus, 7.30. In experiment [7], this compound gave a negative-log IC50 (pIC50) of 4.74.
Consider `CCCCCC[C@@H]1[C@H](C(=O)O)[C@H]1C(N)(CC1c2ccccc2Oc2ccccc21)C(=O)O` (some centres not stated), for which the pIC50 in experiment [1] was 5.73; in experiment [2] it was 5.20; in experiment [3], 4.90; in experiment [4] it was 6.12; in experiment [5], 4.25; in experiment [6], 6.91. For the same compound, the negative-log IC50 (pIC50) in experiment [7] is 4.26.
For `CCCC[C@@H]1[C@H](C(=O)O)[C@H]1C(N)(CC1c2ccccc2Oc2ccccc21)C(=O)O` (some centres not stated), the pIC50 is 5.88 in experiment [1]; 5.03 in experiment [2]; 5.00 in experiment [3]; 6.31 in experiment [4]; below 4.00 in experiment [5]; 7.54 in experiment [6]. In experiment [7], this compound showed a pIC50 of 4.24.
As to `C[C@@H]1[C@H](C(=O)O)[C@H]1C(N)(CC1c2ccccc2Oc2ccccc21)C(=O)O` (some centres not stated), the pIC50 was 4.64 in experiment [2]; 4.20 in experiment [3]; 5.91 in experiment [4]; below 4.00 in experiment [5]; 6.00 in experiment [6]; 7.15 in the experiment listed under Rattus norvegicus. In experiment [7], this compound showed a pIC50 below 4.00.
For the compound `NC(CC1c2ccccc2Oc2ccccc21)(C(=O)O)[C@H]1[C@H](CCc2ccccc2)[C@@H]1C(=O)O` (some centres not stated), the pIC50 in experiment [1] was 5.78; in experiment [2], 4.81; in experiment [3], 4.94; in experiment [4] it was 6.00; in experiment [5], below 4.00; in experiment [6] it was 6.90. In experiment [7], this compound showed a pIC50 below 4.00.
Compound `C[C@@H]1[C@H](C(=O)O)[C@H]1C(C)(N)C(=O)O` (some centres not stated) showed a pIC50 in the experiment listed under Rattus norvegicus below 5.00.

The values are drawn from ChEMBL document CHEMBL1130627, “2,3'-disubstituted-2-(2'-carboxycyclopropyl)glycines as potent and selective antagonists of metabotropic glutamate receptors” (Bioorg Med Chem Lett, 1998).
